From patent publication US20080255368A1, “Tgf-ß Gene Expression Inhibitor” (Nihon University, priority 2004, published 2008)

Key:
TGF-β1 messenger RNA = assay: Inhibition of expression of TGF-β1 messenger RNA in PMA-stimulated human mesangium cells (RT-PCR); type: cell-based; conditions: 12 hours serum-free; for inhibition of expression of TGFβ1 gene: 1×10^−6 M polyamide, 1×10^−6 M PMA stimulation, corrected with 18S
Protocol: (6) Reverse Transcription-Polymerase Chain Reaction (RT-PCR) Assay for RNA Extraction and Growth Factor mRNA
The cultured cells were washed with PBS, dissolved in 1,000 μL of Trizol (Invitrogen), mixed with 100 μL of chloroform, and centrifuged, and an upper aqueous phase thereof was mixed with an equal volume of isopropanol to precipitate RNA. The resulting RNA pellet was washed twice with 500 μL of 75% ethanol, dried, and dissolved in 10 μL of TE buffer solution. The RNA sample was denatured for 15 minutes at 65° C., and treated at room temperature for 45 minutes with 0.5 U of DNase (Gibco) in 0.5 ml of DNase buffer solution (20 mM Tris-HCl pH 8.3, 50 mM KCl, 2.5 mM MgCl2. The DNase was inactivated by adding 0.5 mL of 0.5 M EDTA and heating at 98° C. for 10 minutes.
An equal volume of RNA (1 μg/20 μL) was reverse-transcribed into single-stranded cDNA by 2.5 U/20 μL of avian myeloblastoma virus reverse transcriptase (Takara Biochemicals, Osaka, Japan) in 10 mM Tris-HCl (pH 8.3), 5 mM MgCl2, 50 mM KCl, 1 mM deoxy-NTPs, and 2.5 μM random hexamer. Then, 2 μL of the diluted cDNA product was mixed with 10 mM Tris-HCl (pH 8.3), 50 mM KCl, 4 mM MgCl2, 0.025 U/μL Taq DNA polymerase (Takara Biochemicals, Osaka, Japan), and 0.2 μM each of upstream sense primer and downstream antisense primer in a final volume of 25 μL. The sense primer (5′-[…]-3′) (SEQ ID NO: 7) and the antisense primer (5′-[…]-3′) (SEQ ID NO: 8) were used for PCR amplification of hTGF-β1 mRNA. A sense primer (5′-[…]-3′) (SEQ ID NO: 9) and an antisense primer (5′-[…]-3′) (SEQ ID NO:. 10) to human 18S ribosomal RNA were used as an internal control. PCR was performed by a Thermal Cycler (Perkin Elmer, Foster, Calif.). […] For semi-quantitative analysis of mRNA, the numbers of cycles whereby PCR products were detectable on gels were compared among various samples. cDNAs by successively 10 times dilutions (100, 10, and 1 ng) were amplified. […]

[1] = tested on: double-stranded oligonucleotides corresponding to base pairs of an hTGF-β1 promoter; assay: Gel shift assay of Py-Im polyamide-oligonucleotide complexes; type: binding, human; conditions: 11-base double-stranded DNA containing the target sequence, compared with lanes with DS only, FIG. 3
Protocol: Oligonucleotides were synthesized and annealed, and thereby 12 types of double-stranded oligonucleotides corresponding to base pairs of an hTGF-β1 promoter were prepared. A double-strand DNA was labeled with [γ-^32P]-ATP by T4 polynucleotide kinase. The labeled double-stranded DNA was then incubated for 15 minutes at 37° C. with a polyamide or a mismatch polyamide in a binding buffer solution (40 mM Tris, pH 7.9, 250 mM NaCl, 25 mM EDTA, 25 mM DTT, 100 mM KCl). The obtained complexes were separated by electrophoresis on 20% polyacrylamide gels and visualized by autoradiography.
The binding to target sequences of GB1105 and GBP1106 was examined by gel shift assay. Sense and antisense oligonucleotide having 11 bases containing each target sequence of Py-Im polyamide were prepared, annealed to prepare a double-stranded DNA to the target site, and incubated with each Py-Im polyamide. The obtained products were electrophoresed with polyacrylamide gel and the binding between Py-Im and the target sequence was examined.

Compound | inhibition of expression of TGFβ1 gene (TGF-β1 messenger RNA) | binding to target sequence (migration of double-stranded DNA in gel shift) [1] | increase of expression of TGFβ1 gene (TGF-β1 messenger RNA; 1×10^−6 M of PMA stimulation, human mesangium cells)
CNCCCNC(=O)CCNC(=O)c1cc(NC(=O)c2cc(NC(=O)CCNC(=O)c3cc(NC(=O)c4cc(NC(=O)c5cc(NC(=O)CCCNC(=O)c6nc(NC(=O)c7cc(NC(=O)c8nc(NC(=O)CCNC(=O)c9nc(NC(=O)c%10nc(NC(C)=O)cn%10C)cn9C)cn8C)cn7C)cn6C)cn5C)cn4C)cn3C)cn2C)cn1C [GBP1105] | up to 50% | decreased the migration degree | –
CC(=O)Nc1cn(C)c(C(=O)Nc2cc(C(=O)Nc3cn(C)c(C(=O)NCCC(=O)Nc4cc(C(=O)Nc5cc(C(=O)Nc6cc(C(=O)NCCCC(=O)Nc7cn(C)c(C(=O)Nc8cc(C(=O)Nc9cn(C)c(C(=O)NCCC(=O)Nc%10cc(C(=O)Nc%11cc(C(=O)Nc%12cc(C(=O)NCCC(=O)NCCCN(C)C)n(C)c%12)n(C)c%11)n(C)c%10)n9)n(C)c8)n7)n(C)c6)n(C)c5)n(C)c4)n3)n(C)c2)n1 [GBP1106] | up to 50% | decreased the migration degree | –
CCCCCCCCCCCCCC(=O)O[C@@H]1[C@@H](C)[C@@]2(O)[C@@H](C=C(CO)C[C@]3(O)C(=O)C(C)=C[C@@H]23)[C@@H]2C(C)(C)[C@]12OC(C)=O [PMA, 12-o-tetradecanoylpholbol-13-acetate, reference compound] | – | – | 20%
